Data as given in ChEMBL document CHEMBL1131271, “Potent inhibitors of the MAP kinase p38” (Bioorg Med Chem Lett, 1998).

Molecular target: MAP kinase p38 (Homo sapiens, UniProt O15264+Q15759+Q16539+P53778)
Assay: Inhibition of TNF-alpha production by lipopolysaccharide-stimulated human peripheral blood mononuclear cells
Format: functional

Compared with `Nc1ccc2c(-c3ccncc3)c(-c3ccc(F)cc3)[nH]c2n1`, `Nc1cc(OCc2ccccc2)c2c(-c3ccncc3)c(-c3ccc(F)cc3)[nH]c2n1` is 41-fold lower in IC50: 37 nM for the first, 0.91 nM for the second.

First: COc1cccc(COc2cc(N)[nH]c3nc(-c4ccc(F)cc4)c(-c4ccncc4)c2-3)c1
Second: CCCCOc1cc(N)[nH]c2nc(-c3ccc(F)cc3)c(-c3ccncc3)c1-2
The IC50 of the first is 2.7-fold lower: 1.5 nM for the first, 4 nM for the second.

For `Nc1cc(OCCCc2ccccc2)c2c(-c3ccncc3)c(-c3ccc(F)cc3)[nH]c2n1`, the IC50 was 9 nM.
